Assay [1] relates to Escherichia coli strain ATCC25922 ("EC10"). Kind of assay: FTIR heavy-water labeling level (metabolism) versus antibiotic concentration, strain EC10. Format: cell-based. Conditions: FIG. 4C, amoxicillin 1-64 μg/mL, two hours incubation, Mueller-Hinton medium with 50% v/v heavy water. The procedure: (§1) Once the LDA classifier had been parameterized, it was used in a test phase on Escherichia coli cultures.
(§2) An overnight pre-culture was performed to synchronize the metabolic states of the bacterial populations. Test samples were prepared using different concentrations of amoxicillin (64, 32, 16, 8, 4, 2 and 1 μg/mL), and a culture of each strain was prepared in 2 ml of Mueller-Hinton medium with 50% v/v heavy water and antibiotic. A control sample without antibiotic was prepared. The test samples were then incubated for two hours. After incubation, the test samples were centrifuged and re-suspended in 30 μL of water, then a 5 μl drop was placed on a calcium fluoride slide. The slide was dried by exposure to a hot, dry atmosphere. On each test sample, 64 spectra are acquired using an FTIR microscope at 15× magnification, in order to eliminate potential variations in the sample's thickness of texture.
(§3) This provided test spectra corresponding to the exposure of bacterial strains to different antibiotic concentrations. The algorithm parameterized during the training phase enabled measuring a labeling level for each sample, which is considered representative of metabolic activity.

Assay [2] relates to Escherichia coli strain ATCC35218 ("EC207"). Conditions: cited from earlier work.
For assay [3] the test system is unchanged. As to the kind of experiment: FTIR heavy-water labeling level (metabolism) versus antibiotic concentration, strain EC207. Format: cell-based. Conditions: FIG. 4C, amoxicillin 1-64 μg/mL, two hours incubation, Mueller-Hinton medium with 50% v/v heavy water. The procedure: as §1, §2, §3
Assay [4] relates to Escherichia coli strain ATCC25922 ("EC10"). The conditions noted are these: cited from earlier work.
Assay [5] deals with Staphylococcus Saprophyticus strains SS91, SS96. As to the kind of experiment: FTIR heavy-water labeling level (metabolism) versus antibiotic concentration, strains not used during training. The assay is classed as cell-based. The conditions noted are these: FIG. 5; each of strains SS91 and SS96, above a strain-specific antibiotic concentration (value not given). An excerpt: The x-axis corresponds to the antibiotic concentration (Gentamicin). The y-axis corresponds to a labeling level.

Turning to `CC1(C)S[C@@H]2[C@H](NC(=O)[C@H](N)c3ccc(O)cc3)C(=O)N2[C@H]1C(=O)O` [amoxicillin], in assay [1], the “concentration above which the strain is sensitive (labeling level decreases)” value is about 10 µg/mL. For the same compound, the “sensitivity to the antibiotic (reference strain status)” value is “resistant” in assay [2] and “sensitive” in assay [4]. Besides, in assay [3], the “resistance judged from labeling level (metabolism)” value is on record as “resistant to all the antibiotic concentrations used”. Further, in assay [4] (reference strain ATCC25922 (EC10)), the “concentration above which growth inhibition is exhibited” value was 4 µg/mL.
For the compound Gentamicin, the “labeling level as a function of antibiotic concentration” value in assay [5] was “labeling level decreases”.
